Data taken from patent US6458778B1, “Estradienes” (Wyeth, priority 1997, dated 2002).

Legend:
[1] = tested on: Immature rats; assay: In vivo uterotropic activity; conditions: for Uterine Weight (mg) ± SD: immature rats; for estrogenic activity in vivo (in words): uterine stimulation compared with vehicle
[2] = target: T1, human estrogen receptor (hER-α) (Homo sapiens, UniProt P03372); assay: Estrogen receptor binding, whole cell test procedure; conditions: Ki of 5B estimated
T1 sequence (P03372 1-595): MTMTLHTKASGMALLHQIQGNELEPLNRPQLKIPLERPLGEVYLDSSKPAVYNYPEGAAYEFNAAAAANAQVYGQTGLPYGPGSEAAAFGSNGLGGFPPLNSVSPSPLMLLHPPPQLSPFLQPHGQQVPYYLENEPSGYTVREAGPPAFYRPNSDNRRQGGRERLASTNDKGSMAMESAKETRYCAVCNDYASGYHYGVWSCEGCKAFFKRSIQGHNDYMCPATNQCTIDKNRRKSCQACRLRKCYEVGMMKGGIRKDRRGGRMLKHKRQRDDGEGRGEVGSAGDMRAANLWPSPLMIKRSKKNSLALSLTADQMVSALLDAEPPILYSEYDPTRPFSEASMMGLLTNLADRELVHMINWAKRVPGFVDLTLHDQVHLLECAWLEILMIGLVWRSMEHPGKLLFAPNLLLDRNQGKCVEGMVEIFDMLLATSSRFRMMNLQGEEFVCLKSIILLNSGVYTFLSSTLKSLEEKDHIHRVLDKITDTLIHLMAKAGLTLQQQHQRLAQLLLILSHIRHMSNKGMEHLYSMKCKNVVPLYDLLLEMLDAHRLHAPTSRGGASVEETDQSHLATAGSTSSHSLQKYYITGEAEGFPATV

Row | SMILES | Uterine Weight (mg) ± SD ([1]; 1 μg, three days S.C.) [mg] | Uterine Weight (mg) ± SD ([1]; 10 μg, three days S.C.) [mg] | Uterine Weight (mg) ± SD ([1]; 100 μg, three days S.C.) [mg] | Uterine Weight (mg) ± SD ([1]; 500 μg, three days S.C.) [mg] | estrogenic activity in vivo (in words) [1] | further results
1 | C[C@]12CC[C@H]3C(=CCC4=C3CC[C@@H](O)C4)[C@@H]1CCC2=O [5A, estra-5(10),7-dien-3α-ol-17-one] | 28.7 ± 2.7 | 33.3 ± 4.4 | 66.5 ± 4.7 | 78.9 ± 13.6 | significant estrogenic activity | estimated EC50 compared with 5B ([1]; in words, relative to approximately 30 μg/rat or 0.6 mg/kg for 5B): somewhat lower
2 | C[C@]12CC[C@H]3C(=CCC4=C3CC[C@H](O)C4)[C@@H]1CCC2=O [5B, estra-5(10),7-dien-3β-ol-17-one] | 31.7 ± 6.6 | 43.5 ± 6.9 | 79.7 ± 5.8 | 82.6 ± 8.6 | significant estrogenic activity | Uterine Weight (mg) ± SD ([1]; 0.1 μg, three days S.C.): 34.1 ± 6.2 mg
3 | C#C[C@]1(O)CC[C@H]2[C@@H]3CCc4cc(O)ccc4[C@H]3CC[C@@]21C [Ethinyl Estradiol, ethinyl estradiol, reference compound] |  |  |  |  |  | Uterine Weight (mg) ± SD ([1]; 0.5 μg, three days, positive control): 101.2 ± 2.8 mg
4 | C[C@]12CCc3c(ccc4cc(O)ccc34)[C@@H]1CCC2=O [equilenen] |  |  |  |  |  | Ki [2]: 375 nM
5 | C[C@]12CC[C@@H]3c4ccc(O)cc4CC[C@H]3[C@@H]1CCC2=O [estrone, reference compound] |  |  |  |  |  | EC50 estimated ([1]; in similar test procedures): 0.2 mg/kg
